Results from patent publication US4061649A, “Clavulanic acid sulphates” (Beecham Group Limited, priority 1975, dated 1977).
Where a name gives a salt, the structure may show the parent alone.

What was measured:
[1] = system: strains of Klebsiella aerogenes A; assay: growth inhibition, penicillins with and without clavulanic acid or ester; type: cell-based
[2] = system: β-lactamase producing strains of Proteus mirabilis and Staphylococcus aureus; assay: synergism with cephaloridine; type: cell-based
[3] = system: β-lactamase producing strains of Escherichia coli, Klebsiella aerognes and Staphylococcus aureus; assay: synergism with ampicillin; type: cell-based
[4] = system: strains of Staphylococcus aureus; assay: growth inhibition; type: cell-based
[5] = system: Escherichia coli B 11; assay: MIC / synergism, microtitre method (Example 42); type: cell-based; conditions: compound alone; inoculum 0.5 × 10^-2
[6] = system: Enterobacter cloacae; assay: MIC / synergism, microtitre method (Example 42); type: cell-based; conditions: compound alone; inoculum 0.5 × 10^-2
[7] = system: Staphylococcus aureus; assay: MIC / synergism, microtitre method (Example 42); type: cell-based
[8] = system: Staphylococcus aureus(Russell); assay: MIC / synergism, microtitre method (Example 42); type: cell-based
[9] = system: bacteria; assay: tests for antibacterial activity in broth (Example 32); type: cell-based; conditions: possibly due to clavulanic acid liberated by slow hydrolysis
[10] = target: T1, Pseudomonas Dalgleish β-lactamase (Pseudomonas aeruginosa, UniProt P16897); assay: β-lactamase I50, method of Belgian Pat. No. 827926; type: biochemical
T1 construct: host or cells: Pseudomonas (aeruginosa) Dalgleish
Description: (§1) The I50 in μg/ml of this compound against several β-lactamaseswas determined using the method described in Belgian Pat. No. 827926 and the results are as follows: […]

[11] = target: T2, Escherischia coli JT4 β-lactamase (Escherichia coli, UniProt P62593); assay: β-lactamase I50, method of Belgian Pat. No. 827926; type: biochemical
T2 construct: host or cells: Escherichia coli JT4
Description: as §1

[12] = system: Klebsiella aerogenes; assay: MIC, microtitre method (Example 30); conditions: approximate MIC; inoculum final dilution 0.5 × 10^-4
Description: (§2) The cultures were incubated overnight and the points of bacterial growth recorded next morning by observing the turbidity of the culture.

[13] = system: Bacillus subtilis; assay: MIC, microtitre method (Example 30); conditions: approximate MIC; inoculum final dilution 0.5 × 10^-4
Description: as §2

[14] = system: Streptococcus faecalis; assay: MIC, microtitre method (Example 30); conditions: approximate MIC; inoculum final dilution 0.5 × 10^-4
Description: as §2

[15] = system: Staph.aureus Oxford; assay: MIC, method of Example 30 with 1/100 dilution of overnight broth (Example 46); conditions: heavy inocula (1/100 of overnight broth); no unit in table (Example 30: μg/ml)
Description: as §2

[16] = system: Proteus vulgaris W090; assay: MIC, microtitre method (Example 30); conditions: approximate MIC; inoculum final dilution 0.5 × 10^-4
Description: as §2

[17] = system: Enterobacter aerogenes T 624; assay: MIC, microtitre method (Example 30); conditions: approximate MIC; inoculum final dilution 0.5 × 10^-4
Description: as §2

[18] = system: Enterobacter cloacae; assay: MIC, microtitre method (Example 30); conditions: approximate MIC; inoculum final dilution 0.5 × 10^-4
Description: as §2

[19] = system: Klebsiella oxytocum; assay: MIC, microtitre method (Example 30); conditions: approximate MIC; inoculum final dilution 0.5 × 10^-4
Description: as §2

[20] = system: Shigella sonnei; assay: MIC, microtitre method (Example 30); conditions: approximate MIC; inoculum final dilution 0.5 × 10^-4
Description: as §2

[21] = blood and tissue levels in female mice; type: in vivo; conditions: oral administration of 100 mg/kg
[22] = system: Escherichia coli NCTC 10418; assay: MIC, microtitre method (Example 30); conditions: approximate MIC; inoculum final dilution 0.5 × 10^-4
Description: as §2

[23] = system: Streptococcus pyogenes CN 10; assay: MIC, microtitre method (Example 30); conditions: approximate MIC; inoculum final dilution 0.5 × 10^-4
Description: as §2

[24] = system: Proteus mirabilis 899; type: cell-based
[25] = system: Proteus mirabilis 0977; assay: MIC, microtitre method (Example 30); conditions: approximate MIC; inoculum final dilution 0.5 × 10^-4
Description: as §2

[26] = system: Pseudomonas aeruginosa A; assay: MIC, microtitre method (Example 30); conditions: approximate MIC; inoculum final dilution 0.5 × 10^-4
Description: as §2

[27] = system: Staph.aureus Russell; assay: MIC, method of Example 30 with 1/100 dilution of overnight broth (Example 46); conditions: heavy inocula (1/100 of overnight broth); no unit in table (Example 30: μg/ml)
Description: as §2

[28] = system: Serratia marcescens; assay: MIC, microtitre method (Example 30); conditions: approximate MIC; inoculum final dilution 0.5 × 10^-4
Description: as §2

[29] = system: Salmonella typhimurium; assay: MIC, microtitre method (Example 30); conditions: approximate MIC; inoculum final dilution 0.5 × 10^-4
Description: as §2

[30] = system: Acinetobacter anitratus; assay: MIC, microtitre method (Example 30); conditions: approximate MIC; inoculum final dilution 0.5 × 10^-4
Description: as §2

[31] = system: Providentia stuartii; assay: MIC, microtitre method (Example 30); conditions: approximate MIC; inoculum final dilution 0.5 × 10^-4
Description: as §2

[32] = system: Serratia marcescens; assay: MIC / synergism, microtitre method (Example 42); type: cell-based; conditions: compound alone; inoculum 0.5 × 10^-2
[33] = system: Bacillus subtilis A; assay: MIC, method of Example 30 with 1/100 dilution of overnight broth (Example 46); conditions: heavy inocula (1/100 of overnight broth); no unit in table (Example 30: μg/ml)
Description: as §2

[34] = in presence of 5μg/ml clavulanic acid sodium salt

T2 sequence (P62593 24-286 limits assumed): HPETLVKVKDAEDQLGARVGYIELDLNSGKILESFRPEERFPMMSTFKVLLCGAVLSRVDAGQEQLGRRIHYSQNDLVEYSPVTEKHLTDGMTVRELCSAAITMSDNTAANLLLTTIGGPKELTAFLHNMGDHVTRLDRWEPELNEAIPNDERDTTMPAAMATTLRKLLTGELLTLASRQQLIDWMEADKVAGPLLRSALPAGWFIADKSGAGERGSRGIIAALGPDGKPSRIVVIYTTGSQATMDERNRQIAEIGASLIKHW
T1 sequence (P16897 18-288): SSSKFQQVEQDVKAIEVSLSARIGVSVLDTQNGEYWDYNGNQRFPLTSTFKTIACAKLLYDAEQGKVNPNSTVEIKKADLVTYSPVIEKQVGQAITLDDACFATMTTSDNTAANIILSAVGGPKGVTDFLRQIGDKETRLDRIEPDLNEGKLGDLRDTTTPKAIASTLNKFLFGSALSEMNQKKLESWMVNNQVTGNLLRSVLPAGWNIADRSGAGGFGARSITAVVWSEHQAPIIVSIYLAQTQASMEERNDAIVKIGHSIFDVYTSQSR

O=C(O)[C@H]1/C(=C/CO)O[C@@H]2CC(=O)N21 [clavulanic acid, Z-(2R,5R)-3-(β-hydroxyethylidene)-7-oxo-4-oxa-1-azabicyclo[3,2,0]heptane-2-carboxylic acid]
MIC ([1]; Klebsiella aerogenes, compound alone, read-out: concentration by which growth is not inhibited): > 10 µg/mL
synergism of the antibacterial effect of cephaloridine [2]: able to synergyze the antibacterial effect of cephaloridine
synergism of the antibacterial effect of ampicillin [3]: able to synergyze the antibacterial effect of ampicillin
inhibition of growth [4]: able to inhibit the growth

CC1(C)S[C@@H]2[C@H](NC(=O)[C@H](N)c3ccccc3)C(=O)N2[C@H]1C(=O)O [Ampicillin, ampicillin, reference compound]
Minimum Inhibitory Concentrations [5]: > 500 µg/mL
Minimum Inhibitory Concentrations [6]: 250 µg/mL

O=C(Cc1cccs1)N[C@@H]1C(=O)N2C(C(=O)[O-])=C(C[n+]3ccccc3)CS[C@H]12 [Cephaloridine, cephaloridine]
Minimum Inhibitory Concentrations [7, 34]: 3.7 µg/mL
Minimum Inhibitory Concentrations [8, 34]: > 0.03 µg/mL
Minimum Inhibitory Concentrations ([8]; synergist (clavulanic acid sodium salt) added at 1 μg/ml. instead of 5 μg/ml., compared with the value at 5 μg/ml): Same value

COC(=O)[C@H]1/C(=C/CO)O[C@@H]2CC(=O)N21 [clavulanic acid methyl ester]
antibacterial activity in broth [9]: broad spectrum activity but of a lower order than shown by clavulanic acid

O=C(OCc1ccccc1)[C@H]1/C(=C/COS(=O)(=O)O)O[C@@H]2CC(=O)N21 [Example 50, Benzyl Clavulanate -- O -- sulphonate trimethylamine salt]
IC50 [10]: 11.4 µM
IC50 [11]: 9.21 µM

O=C(O)[C@H]1/C(=C/CO)O[C@@H]2CC(=O)N21 [clavulanic acid sodium salt, 3-(β-hydroxyethylidine)-7-oxo-4-oxa-1-azabicyclo [3,2,0]heptane-2-carboxylic acid sodium salt]
Minimum Inhibitory Concentrations ([7]; compound alone, inoculum 0.5 × 10^-2): 62 µg/mL
Minimum Inhibitory Concentration [12]: 31 to 62 µg/mL
Minimum Inhibitory Concentration [13]: 62 µg/mL
Minimum Inhibitory Concentration [14]: > 500 µg/mL
MIC [15]: 15
Minimum Inhibitory Concentration [16]: 31 µg/mL
Minimum Inhibitory Concentration [17]: 31 µg/mL
Minimum Inhibitory Concentration [18]: 62 µg/mL
Minimum Inhibitory Concentration [19]: 62 µg/mL
Minimum Inhibitory Concentration [20]: 62 µg/mL
levels of clavulanic acid [21]: useful levels
Minimum Inhibitory Concentration [22]: 31 µg/mL
Minimum Inhibitory Concentration [23]: 125 µg/mL
Minimum Inhibitory Concentrations [24]: < 500 µg/mL
Minimum Inhibitory Concentration [25]: 62 µg/mL
Minimum Inhibitory Concentration [26]: 500 µg/mL
MIC [27]: 15
Minimum Inhibitory Concentration [28]: 125 µg/mL
Minimum Inhibitory Concentration [29]: 31 µg/mL
Minimum Inhibitory Concentration [30]: 125 µg/mL
Minimum Inhibitory Concentration [31]: 125 µg/mL
Minimum Inhibitory Concentrations [32]: 125 µg/mL
Minimum Inhibitory Concentrations [6]: 62 µg/mL
MIC [33]: 62

CC1(C)S[C@@H]2[C@H](NC(=O)Cc3ccccc3)C(=O)N2[C@H]1C(=O)O [Benzylpenicillin, benzylpenicillin, reference compound]
concentration by which growth is inhibited ([1]; when 5 μg/ml. of clavulanic acid is also present): less than 12.5 μg/ml
